Test results taken from US4959374A, “Novel compounds” (Beecham Group P.L.C., priority 1989, dated 1990).

Test system: CFLP female mice
Experiment: Reversal of Adrenaline-Exacerbated Glucose Intolerance in Mice
Assay type: in vivo
Conditions: oral gavage, glucose 1 g/kg and adrenaline 300 μg/kg s.c., 0-120 minutes, versus water control, 24 h fasted mice
Experimental: (A) Reversal of Adrenaline-Exacerbated Glucose Intolerance in Mice
CFLP female mice of about 25 g were fasted for 24 hours prior to receiving water (10 ml/kg) or compounds by oral gavage. Thirty minutes later, glucose (1 g/kg) and adrenaline (300 μg/kg) were injected subcutaneously. Blood samples for glucose analysis were taken serially from the tail of each mouse at 0, 30, 60, 90 and 120 minutes after dosing glucose and the results are expressed below as the percentage reduction in the area under the blood glucose curve; the compound treated groups being compared to the water dosed control group. Six mice were used in each treatment group.

Row | SMILES | % Reduction in area under Blood Glucose Curve (10 μmol/kg) [%] | % Reduction in area under Blood Glucose Curve (20 μmol/kg) [%]
1 | c1ccc2c(c1)CN(CC1=NCCN1)C2 [Example 1, 2-[2H-(1,3-Dihydroisoindole)methyl]-4,5-dihydroimidazole] | 40 | 
2 | Clc1cccc2c1CN(CC1=NCCN1)C2 [Example 2, 2-[2H-(4-Chloro-1,3-dihydroisoindole)methyl]-4,5-dihydroimidazole] | 24 | 
3 | Clc1ccc2c(c1)CN(CC1=NCCN1)C2 [Example 3, 2-[2H-(5-Chloro-1,3-dihydroisoindole)methyl]-4,5-dihydroimidazole] |  | 44
